≈ marks a conversion by molar mass, not a printed value. Where a SMILES comes first, the peptide text is derived from it. Bridges are numbered along the chain shown (N, C = ends). Roman numbers before positions name the chains, in order. [ ]: non-standard residue; d: D form. Thr(ol) = C[C@@H](O)[C@H](N)CO; Tle = CC(C)(C)[C@H](N)C(=O)O; Hiv = CC(C)[C@H](O)C(=O)O; dDab = NCC[C@@H](N)C(=O)O; Nle = CCCC[C@H](N)C(=O)O; Orn = NCCC[C@H](N)C(=O)O; Dab = NCC[C@H](N)C(=O)O; Abu = CC[C@H](N)C(=O)O; Dap = NC[C@H](N)C(=O)O
Columns and labels:
male ICR mice = assay: Tolerability in a mouse model (Maximum Tolerated Dose assay); type: in vivo; conditions: 2 × 30 mg/kg s.c. at a 12-hr interval, groups of 3
Description: The tolerability of the peptides was tested in a mouse model at Pharmacology Discovery Services Taiwan Ltd, Taipei, Taiwan. The peptides were administered subcutaneously (s.c.) at 30 mg/kg or 40 mg/kg, respectively; twice at a 12-hr interval, for assessment of possible adverse effects in the Maximum Tolerated Dose (MTD) assay in male ICR (Institute of Cancer Research) mice. The peptides were dissolved in 0.9% NaCl at the concentrations either of 6 or 8 mg/mL, respectively, based on the free base molecular weight. The pH values of dosing solutions were adjusted to 6.5-7.6 before s.c. administration. A dosing volume at 5 mL/kg and a concentration of 6 or 8 mg/mL, respectively, was applied. The fresh prepared stock solution were stored at 4° C. during the study. Male ICR mice weighing 23±3 g were provided by BioLasco Taiwan (under Charles River Laboratories Licensee). Animals were acclimated for 3 days prior to use and were confirmed to be in good health. The peptides were administered s.c. at 30 mg/kg or 40 mg/kg, respectively, twice at a 12-hr interval, to groups of 3 ICR male mice and observed for the presence of acute toxic symptoms (mortality, convulsions, tremors, muscle relaxation, sedation, etc.) and autonomic effects (diarrhea, salivation, lacrimation, vasodilation, piloerection, etc.) during the first 30 min. The peptides were administered again at a 12-hr (two total doses) interval, following the first dose. The animals were then observed again for the presence of acute toxic symptoms and autonomic effects during the first 30 min.

[1] = test system: human red blood cells (hRBC); assay: Hemolysis; type: cell-based; conditions: red cells of human, 1 h, 200
Procedure, shortened: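 Percent lysis of human red cells was derived from OD540 of the supernatant, referenced to 2% Triton X-100, after a 1 h, 37° C incubation of 20% (v/v) cells with 200 μg/mL peptide.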

[2] = test system: Acinetobacter baumannii 872842; type: cell-based; conditions: 872842
Procedure, shortened: (§1)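 Broth microdilution per CLSI; MH-II (cation-adjusted) + 0.002% P-80 final; ~10^6 CFU/mL inoculum; 2-fold peptide series; 35° C, 18-20 h; MIC = no visible growth, μg/mL.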

[3] = test system: Klebsiella pneumoniae 968733; type: cell-based; conditions: 968733
Procedure, shortened: as §1

Escherichia coli 926415 = type: cell-based; conditions: 926415
Procedure, shortened: as §1

[4] = test system: Enterobacter cloacae 848840; type: cell-based; conditions: 848840
Procedure, shortened: as §1

[5] = test system: Acinetobacter baumannii DSM 30008; type: cell-based; conditions: DSM 30008
Procedure, shortened: as §1

[6] = test system: Klebsiella pneumoniae SSI #3010; type: cell-based; conditions: SSI #3010
Procedure, shortened: as §1

[7] = test system: Pseudomonas aeruginosa ATCC 27853; type: cell-based; conditions: ATCC 27853
Procedure, shortened: as §1

[8] = test system: Escherichia coli ATCC 25922; type: cell-based; conditions: ATCC 25922
Procedure, shortened: as §1

| SMILES | Mortality and dose (male ICR mice) | Hemolysis at 200 μg/mL [1] | MIC [2] | MIC [3] | MIC (Escherichia coli 926415) | MIC [4] | MIC [5] | MIC [6] | MIC [7] | MIC [8] |
| --- | --- | --- | --- | --- | --- | --- | --- | --- | --- | --- |
| CC(C)C[C@@H]1NC(=O)[C@@H](CC(C)C)NC(=O)[C@H](CCN)NC(=O)[C@@H](NC(=O)[C@H](CN)NC(=O)[C@@H](NC(=O)[C@H](CCN)NC(=O)CC[C@H]2NC(=O)[C@H](CCCN)NC(=O)[C@H](CCN)NC(=O)[C@H](Cc3ccc(O)cc3)NC(=O)[C@@H](NC(=O)[C@@H](O)C(C)C)CSSC[C@@H](C(=O)N[C@H](C(N)=O)[C@@H](C)O)NC(=O)[C@H](C(C)(C)C)NC(=O)[C@H](CO)NC(=O)[C@H](Cc3c[nH]c4ccccc34)NC(=O)[C@H]([C@@H](C)O)NC2=O)[C@@H](C)O)CCNC(=O)[C@H]([C@@H](C)O)NC(=O)[C@H](CCN)NC(=O)[C@H](CCN)NC1=O [Ex. 161] (I: H-[Hiv]CY[Dab][Orn][dE]TWS[Tle]CT-NH2 / II: [Dab]T[Dap][Dab][Dab][dL]L[Dab][Dab]T; disulfide I:2-I:11; amide I:6-II:N; lactam II:4-II:C) | 0/3 died at 2 × 30 mg/kg | 1% | 0.25 µg/mL (≈ 0.104 µM) | 0.25 µg/mL (≈ 0.104 µM) | 0.5 µg/mL (≈ 0.207 µM) | 1 µg/mL (≈ 0.414 µM) | 0.125 µg/mL (≈ 0.0518 µM) | 0.125 µg/mL (≈ 0.0518 µM) | 0.25 µg/mL (≈ 0.104 µM) | 0.125 µg/mL (≈ 0.0518 µM) |
| CC(C)C[C@@H]1NC(=O)[C@@H](CC(C)C)NC(=O)[C@H](CCN)NC(=O)[C@@H](NC(=O)[C@H](CCN)NC(=O)[C@@H](NC(=O)[C@H](CCN)NC(=O)CC[C@@H]2NC(=O)[C@@H](NC(=O)[C@H](Cc3ccc(O)cc3)NC(=O)[C@@H](NC(=O)[C@@H](O)C(C)C)[C@@H](C)O)CSSC[C@@H](C(=O)N[C@H](C(=O)N[C@@H](C)C(=O)N[C@H](CO)[C@@H](C)O)C(C)(C)C)NC(=O)[C@H](Cc3c[nH]c4ccccc34)NC(=O)[C@H]([C@@H](C)O)NC(=O)[C@@H](CCN)NC2=O)[C@@H](C)O)CCNC(=O)[C@H]([C@@H](C)O)NC(=O)[C@H](CCN)NC(=O)[C@H](CCN)NC1=O [Ex. 188] (I: H-[Hiv]TYCE[dDab]TWC[Tle]A[Thr(ol)] / II: [Dab]T[Dab][Dab][Dab][dL]L[Dab][Dab]T; disulfide I:4-I:9; amide I:5-II:N; lactam II:4-II:C) | 0/3 died at 2 × 30 mg/kg | <1% | 0.5 µg/mL (≈ 0.21 µM) | 1 µg/mL (≈ 0.419 µM) | 0.5 µg/mL (≈ 0.21 µM) | 0.5 µg/mL (≈ 0.21 µM) | 0.125 µg/mL (≈ 0.0524 µM) | 0.25 µg/mL (≈ 0.105 µM) | 0.5 µg/mL (≈ 0.21 µM) | 0.0625 µg/mL (≈ 0.0262 µM) |
| CC(=O)N[C@H](C(=O)N[C@H](C(=O)N[C@@H](Cc1ccc(O)cc1)C(=O)N[C@H]1CSSC[C@@H](C(=O)N[C@H](C(=O)N[C@@H](C)C(=O)N[C@H](C(N)=O)[C@@H](C)O)C(C)C)NC(=O)[C@H](Cc2c[nH]c3ccccc23)NC(=O)[C@H](CO)NC(=O)[C@@H](CCN)NC(=O)[C@H](CCC(=O)N[C@@H](CCN)C(=O)N[C@H](C(=O)N[C@@H](CN)C(=O)N[C@H]2CCNC(=O)[C@H]([C@@H](C)O)NC(=O)[C@H](CCN)NC(=O)[C@H](CCN)NC(=O)[C@H](CC(C)C)NC(=O)[C@@H](CC(C)C)NC(=O)[C@H](CCN)NC2=O)[C@@H](C)O)NC1=O)[C@@H](C)O)C(C)C [Ex. 219] (I: Ac-VTYCE[dDab]SWCVAT-NH2 / II: [Dab]T[Dap][Dab][Dab][dL]L[Dab][Dab]T; disulfide I:4-I:9; amide I:5-II:N; lactam II:4-II:C) | 0/3 died at 2 × 30 mg/kg | <1% | 0.125 µg/mL (≈ 0.0521 µM) | 0.5 µg/mL (≈ 0.209 µM) | 0.25 µg/mL (≈ 0.104 µM) | 0.125 µg/mL (≈ 0.0521 µM) | 0.03125 µg/mL (≈ 0.013 µM) | 0.0625 µg/mL (≈ 0.0261 µM) | 0.125 µg/mL (≈ 0.0521 µM) | 0.03125 µg/mL (≈ 0.013 µM) |
| CC[C@@H]1NC(=O)[C@@H](CC(C)C)NC(=O)[C@H](CCN)NC(=O)[C@@H](NC(=O)[C@H](CN)NC(=O)[C@@H](NC(=O)[C@H](CCN)NC(=O)CC[C@@H]2NC(=O)[C@H](CO)NC(=O)[C@H](Cc3ccc(O)cc3)NC(=O)[C@@H](NC(=O)[C@@H](NC(C)=O)C(C)C)CSSC[C@@H](C(=O)N[C@@H](CO)C(N)=O)NC(=O)[C@H]([C@@H](C)CC)NC(=O)[C@H](CO)NC(=O)[C@H](Cc3c[nH]c4ccccc34)NC(=O)[C@H](CCN)NC(=O)[C@@H](CCN)NC2=O)[C@@H](C)O)CCNC(=O)[C@H]([C@@H](C)O)NC(=O)[C@H](CCN)NC(=O)[C@H](CCN)NC1=O [Ex. 257] (I: Ac-VCYSE[dDab][Dab]WSICS-NH2 / II: [Dab]T[Dap][Dab][Dab][dL][Abu][Dab][Dab]T; disulfide I:2-I:11; amide I:5-II:N; lactam II:4-II:C) | 0/3 died at 2 × 30 mg/kg | 1% | 0.03125 µg/mL (≈ 0.0131 µM) | 0.125 µg/mL (≈ 0.0524 µM) | 0.0625 µg/mL (≈ 0.0262 µM) | 0.0625 µg/mL (≈ 0.0262 µM) | 0.03125 µg/mL (≈ 0.0131 µM) | 0.03125 µg/mL (≈ 0.0131 µM) | 0.0625 µg/mL (≈ 0.0262 µM) | 0.03125 µg/mL (≈ 0.0131 µM) |
| CC[C@@H]1NC(=O)[C@@H](CC(C)C)NC(=O)[C@H](CCN)NC(=O)[C@@H](NC(=O)[C@H](CN)NC(=O)[C@@H](NC(=O)[C@H](CCN)NC(=O)CC[C@@H]2NC(=O)[C@H]([C@@H](C)O)NC(=O)[C@H](Cc3ccc(O)cc3)NC(=O)[C@@H](NC(=O)[C@@H](NC(C)=O)C(C)C)CSSC[C@@H](C(=O)N[C@@H](CO)C(N)=O)NC(=O)[C@H]([C@@H](C)CC)NC(=O)[C@H](CO)NC(=O)[C@H](Cc3c[nH]c4ccccc34)NC(=O)[C@H](CCN)NC(=O)[C@@H](CCN)NC2=O)[C@@H](C)O)CCNC(=O)[C@H]([C@@H](C)O)NC(=O)[C@H](CCN)NC(=O)[C@H](CCN)NC1=O [Ex. 258] (I: Ac-VCYTE[dDab][Dab]WSICS-NH2 / II: [Dab]T[Dap][Dab][Dab][dL][Abu][Dab][Dab]T; disulfide I:2-I:11; amide I:5-II:N; lactam II:4-II:C) | 0/3 died at 2 × 30 mg/kg | 2% | 0.03125 µg/mL (≈ 0.013 µM) | 0.125 µg/mL (≈ 0.0521 µM) | 0.25 µg/mL (≈ 0.104 µM) | 0.0625 µg/mL (≈ 0.0261 µM) | 0.03125 µg/mL (≈ 0.013 µM) | 0.03125 µg/mL (≈ 0.013 µM) | 0.0625 µg/mL (≈ 0.0261 µM) | 0.0625 µg/mL (≈ 0.0261 µM) |
| CCCC[C@H](NC(C)=O)C(=O)N[C@H]1CSSC[C@@H](C(=O)N[C@H](C(N)=O)[C@@H](C)O)NC(=O)[C@H]([C@@H](C)CC)NC(=O)[C@H](CO)NC(=O)[C@H](Cc2c[nH]c3ccccc23)NC(=O)[C@H](CCN)NC(=O)[C@@H](CCN)NC(=O)[C@H](CCC(=O)N[C@@H](CCN)C(=O)N[C@H](C(=O)N[C@@H](CN)C(=O)N[C@H]2CCNC(=O)[C@H]([C@@H](C)O)NC(=O)[C@H](CCN)NC(=O)[C@H](CCN)NC(=O)[C@H](CC)NC(=O)[C@@H](CC(C)C)NC(=O)[C@H](CCN)NC2=O)[C@@H](C)O)NC(=O)[C@H](CO)NC(=O)[C@H](Cc2ccc(O)cc2)NC1=O [Ex. 259] (I: Ac-[Nle]CYSE[dDab][Dab]WSICT-NH2 / II: [Dab]T[Dap][Dab][Dab][dL][Abu][Dab][Dab]T; disulfide I:2-I:11; amide I:5-II:N; lactam II:4-II:C) | 0/3 died at 2 × 30 mg/kg | 2% | 0.03125 µg/mL (≈ 0.013 µM) | 0.0625 µg/mL (≈ 0.0259 µM) | 0.125 µg/mL (≈ 0.0518 µM) | 0.0625 µg/mL (≈ 0.0259 µM) | 0.01562 µg/mL (≈ 0.00647 µM) | 0.03125 µg/mL (≈ 0.013 µM) | 0.0625 µg/mL (≈ 0.0259 µM) | 0.01562 µg/mL (≈ 0.00647 µM) |
